Four compounds from patent US20140249147A1, “Substituted Bicyclic Aza-Heterocycles and Analogues as Sirtuin Modulators” (GlaxoSmithKline, LLC, priority 2011, published 2014) can be followed below.

Test [1] addresses T1, SIRT1 (Homo sapiens, UniProt Q96EB6).
T1 sequence (Q96EB6 1-747): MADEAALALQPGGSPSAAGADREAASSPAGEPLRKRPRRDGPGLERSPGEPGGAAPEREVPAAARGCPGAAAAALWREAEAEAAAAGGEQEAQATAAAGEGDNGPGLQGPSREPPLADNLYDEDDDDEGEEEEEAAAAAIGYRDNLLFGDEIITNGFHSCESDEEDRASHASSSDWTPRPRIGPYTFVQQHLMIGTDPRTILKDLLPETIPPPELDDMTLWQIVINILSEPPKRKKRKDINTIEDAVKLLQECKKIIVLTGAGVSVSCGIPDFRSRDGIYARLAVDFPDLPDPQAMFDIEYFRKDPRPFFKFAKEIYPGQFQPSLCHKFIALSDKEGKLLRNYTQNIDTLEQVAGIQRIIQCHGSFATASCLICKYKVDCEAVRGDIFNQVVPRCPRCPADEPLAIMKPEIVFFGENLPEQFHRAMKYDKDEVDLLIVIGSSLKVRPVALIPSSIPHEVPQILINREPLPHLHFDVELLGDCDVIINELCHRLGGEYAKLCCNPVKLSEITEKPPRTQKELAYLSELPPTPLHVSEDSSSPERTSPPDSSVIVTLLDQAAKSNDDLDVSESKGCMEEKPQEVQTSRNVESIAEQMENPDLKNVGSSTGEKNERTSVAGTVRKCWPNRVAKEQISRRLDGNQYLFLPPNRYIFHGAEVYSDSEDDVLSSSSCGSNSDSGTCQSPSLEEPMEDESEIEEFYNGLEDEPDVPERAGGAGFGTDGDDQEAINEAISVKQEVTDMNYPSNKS
In words: TAMRA based mass spectrometry assay of SIRT1 activation. Type of test: biochemical. To be noted: TAMRA peptide substrate; for Emax: 25 min, percent maximum fold activation relative to control (100%), read-out: TAMRA % Fold Act; for TAMRA EC1.5 (μM): concentration giving 150% activation of SIRT1. The text has this: (§1) Mass spectrometry based assays were used to identify modulators of SIRT1 activity. The TAMRA based assay utilized a peptide having 20 amino acid residues as follows: Ac-EE-K(biotin)-GQSTSSHSK(Ac)NleSTEG-K(5TMR)-EE-NH2 (SEQ ID NO: 1), wherein K(Ac) is an acetylated lysine residue and Nle is a norleucine. The peptide was labeled with the fluorophore 5TMR (excitation 540 nm/emission 580 nm) at the C-terminus. The sequence of the peptide substrate was based on p53 with several modifications. In addition, the methionine residue naturally present in the sequence was replaced with the norleucine because the methionine may be susceptible to oxidation during synthesis and purification. The Trp based assay utilized a peptide having an amino acid residues as follows: Ac—R—H—K—K(Ac)—W—NH2 (SEQ ID NO: 2).
The TAMRA based mass spectrometry assay was conducted as follows: 0.5 μM peptide substrate and 120 μM βNAD^+ was incubated with 10 nM SIRT1 for 25 minutes at 25° C. in a reaction buffer (50 mM Tris-acetate pH 8, 137 mM NaCl, 2.7 mM KCl, 1 mM MgCl2, 5 mM DTT, 0.05% BSA). The SIRT1 protein was obtained by cloning the SirT1 gene into a T7-promoter containing vector, which was then transformed and expressed in BL21(DE3) bacterial cells. Test compound was added at varying concentrations to this reaction mixture and the resulting reactions were monitored. After the 25 minute incubation with SIRT1, 10 μL of 10% formic acid was added to stop the reaction. The resulting reactions were sealed and frozen for later mass spec analysis. Determination of the amount of deacetylated substrate peptide formed (or, alternatively, the amount of O-acetyl-ADP-ribose (OAADPR) generated) by the sirtuin-mediated NAD-dependent deacetylation reaction allowed for the precise measurement of relative SIRT1 activity in the presence of varying concentrations of the test compound versus control reactions lacking the test compound.
(§2) A control for inhibition of sirtuin activity was conducted by adding 1 μL of 500 mM nicotinamide as a negative control at the start of the reaction (e.g., permits determination of maximum sirtuin inhibition). A control for activation of sirtuin activity was conducted using 10 nM of sirtuin protein, with 1 μL of DMSO in place of compound, to determine the amount of deacetylation of the substrate at a given time point within the linear range of the assay. This time point was the same as that used for test compounds and, within the linear range, the endpoint represents a change in velocity. For the above assay, SIRT1 protein was expressed and purified as follows. The SirT1 gene was cloned into a T7-promoter containing vector and transformed into BL21(DE3). The protein was expressed by induction with 1 mM IPTG as an N-terminal His-tag fusion protein at 18° C. overnight and harvested at 30,000×g. Cells were lysed with lysozyme in lysis buffer (50 mM Tris-HCl, 2 mM Tris[2-carboxyethyl]phosphine (TCEP), 10 μM ZnCl2, 200 mM NaCl) and further treated with sonication for 10 min for complete lysis. The protein was purified over a Ni-NTA column (Amersham) and fractions containing pure protein were pooled, concentrated and run over a sizing column (Sephadex S200 26/60 global). The peak containing soluble protein was collected and run on an Ion-exchange column (MonoQ). Gradient elution (200 mM-500 mM NaCl) yielded pure protein. This protein was concentrated and dialyzed against dialysis buffer (20 mM Tris-HCl, 2 mM TCEP) overnight. The protein was aliquoted and frozen at −80° C. until further use.
Sirtuin-modulating compounds of Formula (I) that activated SIRT1 were identified using the assay described above and are shown below in Table 1. The EC1.5 values represent the concentration of test compounds that result in 150% activation of SIRT1. The EC1.5 values for the activating compounds of Formula (I) are represented by A (EC1.5<1 μM), B (EC1.5 1-25 μM), C (EC1.5>25 μM). […]

Test [2] addresses T1, SIRT1. As to the kind of experiment: Trp mass spectrometry assay of SIRT1 activation. Type of test: biochemical. Conditions: Trp peptide substrate; for TYP EC1.5 (μM): concentration giving 150% activation of SIRT1; for TYP % Fold Act: percent maximum fold activation relative to control (100%).
Excerpt: as §1
The Trp mass spectrometry assay was conducted as follows. 0.5 μM peptide substrate and 120 μM βNAD^+ were incubated with 10 nM SIRT1 for 25 minutes at 25° C. in a reaction buffer (50 mM HEPES pH 7.5, […], 1 mM DTT, 0.05% BSA). The SIRT1 protein was obtained by cloning the SirT 1 gene into a T7-promoter containing vector, which was then expressed in BL21(DE3) bacterial cells and purified as described in further detail below. Test compound was added at varying concentrations to this reaction mixture and the resulting reactions were monitored. After the 25 minute incubation with SIRT1, 10 μL of 10% formic acid was added to stop the reaction. The resulting reactions were sealed and frozen for later mass spec analysis. The relative SIRT1 activity was then determined by measuring the amount of O-acetyl-ADP-ribose (OAADPR) formed (or, alternatively, the amount of deacetylated Trp peptide generated) by the NAD-dependent sirtuin deacetylation reaction in the presence of varying concentrations of the test compound versus control reactions lacking the test compound. The degree to which the test agent activated deacetylation by SIRT1 was expressed as EC1.5 (i.e., the concentration of compound required to increase SIRT1 activity by 50% over the control lacking test compound), and Percent Maximum Activation (i.e., the maximum activity relative to control (100%) obtained for the test compound).
as §2
Sirtuin-modulating compounds of Formula (I) that activated SIRT1 were identified using the assay described above and are shown below in Table 1. […]

As to `O=C(Nc1cccc(C(F)(F)F)n1)c1ccc2ncc(-c3ccccc3Cl)n2n1` [Compound 21], in test [1], the Emax was less than 350% and the “TAMRA EC1.5 (μM)” value is “C (EC1.5>25 μM)”. Further, in test [2], the “TYP EC1.5 (μM)” value is reported as “C (EC1.5>25 μM)” and the “TYP % Fold Act” value was “B (Fold Activation <350%)”.

Consider `O=C(Nc1ccc2ncc(-c3cccc(C(F)(F)F)c3)n2n1)c1nccs1` [Compound 18], for which, in test [1], the Emax is less than 350% and the “TAMRA EC1.5 (μM)” value was “C (EC1.5>25 μM)”. Further, in test [2], the “TYP EC1.5 (μM)” value was “C (EC1.5>25 μM)” and the “TYP % Fold Act” value was “B (Fold Activation <350%)”.

With `O=C(Nc1ccnc(C(F)(F)F)c1)c1ccc2ncc(-c3cccc(Cl)c3)n2n1` [Compound 19], in test [1], the Emax is less than 350% and the “TAMRA EC1.5 (μM)” value is “B (EC1.5 1-25 μM)”. Moreover, in test [2], the “TYP EC1.5 (μM)” value is listed as “C (EC1.5>25 μM)” and the “TYP % Fold Act” value is given as “B (Fold Activation <350%)”.

For the compound `O=C(Nc1cccc(N2CCOCC2)n1)c1ccc2ncc(-c3ccccc3Cl)n2n1` [Compound 44], in test [1], the Emax was less than 350% and the “TAMRA EC1.5 (μM)” value is “C (EC1.5>25 μM)”. In test [2], the “TYP EC1.5 (μM)” value was “C (EC1.5>25 μM)” and the “TYP % Fold Act” value is “B (Fold Activation <350%)”.
